Test results: ChEMBL document CHEMBL4433255, “Small-molecule agents for the treatment of inflammatory bowel disease” (Bioorg Med Chem Lett, 2019)

Assays:
[1] = target: T1, Integrin alpha-4/beta-7 (Homo sapiens, UniProt P13612+P26010); test: Antagonist activity at integrin alpha4beta7 expressed in human RPMI8866 cells assessed as reduction in cell adhesion to rat MadCAM incubated for 40 to 60 mins by lactate dehydrogenase assay; format: cell-based
T1 sequence (P13612 whole entry): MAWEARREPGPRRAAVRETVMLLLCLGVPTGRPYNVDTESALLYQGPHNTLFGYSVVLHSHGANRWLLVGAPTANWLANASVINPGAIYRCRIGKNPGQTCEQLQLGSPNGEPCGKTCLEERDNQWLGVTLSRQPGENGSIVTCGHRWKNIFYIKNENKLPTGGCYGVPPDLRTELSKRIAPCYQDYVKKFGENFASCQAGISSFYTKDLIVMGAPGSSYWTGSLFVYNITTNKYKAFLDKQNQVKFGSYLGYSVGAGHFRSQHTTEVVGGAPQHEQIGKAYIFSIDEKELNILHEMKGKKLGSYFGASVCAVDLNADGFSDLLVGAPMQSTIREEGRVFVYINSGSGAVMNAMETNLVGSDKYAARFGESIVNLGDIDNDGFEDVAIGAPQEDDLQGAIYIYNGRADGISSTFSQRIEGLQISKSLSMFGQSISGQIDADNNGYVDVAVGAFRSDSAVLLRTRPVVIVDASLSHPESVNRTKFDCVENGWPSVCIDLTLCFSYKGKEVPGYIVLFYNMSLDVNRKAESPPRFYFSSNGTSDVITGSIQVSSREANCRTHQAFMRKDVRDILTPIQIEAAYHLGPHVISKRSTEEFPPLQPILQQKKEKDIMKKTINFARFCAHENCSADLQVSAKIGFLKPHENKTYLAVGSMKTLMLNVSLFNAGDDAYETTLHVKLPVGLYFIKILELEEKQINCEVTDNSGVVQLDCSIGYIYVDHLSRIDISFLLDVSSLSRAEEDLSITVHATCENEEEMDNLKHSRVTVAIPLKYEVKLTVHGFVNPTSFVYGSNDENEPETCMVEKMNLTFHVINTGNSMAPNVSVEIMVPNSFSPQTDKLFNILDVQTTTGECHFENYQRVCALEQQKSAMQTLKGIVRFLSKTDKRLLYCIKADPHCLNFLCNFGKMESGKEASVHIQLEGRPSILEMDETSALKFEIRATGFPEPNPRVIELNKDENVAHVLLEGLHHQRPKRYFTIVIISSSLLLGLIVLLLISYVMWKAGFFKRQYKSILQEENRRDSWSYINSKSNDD
T1 sequence (P26010 whole entry): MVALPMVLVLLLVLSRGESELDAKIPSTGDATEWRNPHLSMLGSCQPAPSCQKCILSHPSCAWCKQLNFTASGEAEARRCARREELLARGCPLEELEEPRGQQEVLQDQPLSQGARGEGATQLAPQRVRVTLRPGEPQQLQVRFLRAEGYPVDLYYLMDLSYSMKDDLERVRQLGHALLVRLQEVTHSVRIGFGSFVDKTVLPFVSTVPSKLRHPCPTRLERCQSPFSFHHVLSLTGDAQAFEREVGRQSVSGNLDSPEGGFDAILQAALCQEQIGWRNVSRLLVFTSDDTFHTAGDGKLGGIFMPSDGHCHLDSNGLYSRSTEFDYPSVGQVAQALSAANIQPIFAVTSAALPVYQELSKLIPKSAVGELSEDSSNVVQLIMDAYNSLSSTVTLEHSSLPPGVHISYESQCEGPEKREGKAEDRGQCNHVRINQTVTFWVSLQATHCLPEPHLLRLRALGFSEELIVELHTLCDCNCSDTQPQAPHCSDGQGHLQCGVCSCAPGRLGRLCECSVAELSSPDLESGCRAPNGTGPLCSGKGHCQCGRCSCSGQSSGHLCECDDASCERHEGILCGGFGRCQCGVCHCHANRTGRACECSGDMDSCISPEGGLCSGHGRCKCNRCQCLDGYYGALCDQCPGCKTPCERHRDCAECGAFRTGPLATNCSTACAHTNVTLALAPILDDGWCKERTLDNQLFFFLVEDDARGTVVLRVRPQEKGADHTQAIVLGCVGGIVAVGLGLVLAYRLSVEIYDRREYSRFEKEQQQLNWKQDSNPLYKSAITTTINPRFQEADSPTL

[2] = target: Integrin alpha-4/beta-1 (Homo sapiens, UniProt P05556+P13612); test: Antagonist activity at integrin alpha4beta1 expressed in human Jurkat cells assessed as reduction in cell adhesion to human VCAM-1 incubated for 40 to 60 mins by lactate dehydrogenase assay; format: cell-based
[3] = system: Mus musculus; test: Immunosuppressive activity in BALB/c mouse assessed as inhibition of leukocyte homing to peyer's patches orally dosed by FACS analysis; format: functional, organism-based
[4] = Inhibition of IL-10 deficient BALB/c mouse CD4 positive T-cell migration by immunofluorescence method relative to control; format: functional
[5] = target: Sphingosine 1-phosphate receptor 5 (Homo sapiens, UniProt Q9H228); test: Agonist activity at S1P5 (unknown origin) assessed as stimulation of [35S]GTPgammaS binding incubated for 120 mins in presence of GDP by TopCount scintillation counting method; format: functional
[6] = system: Rattus norvegicus; test: Antiinflammatory activity in Sprague-Dawley rat model of TNBS-induced colitis assessed as reduction in number of circulating lymphocytes at 0.6 mg/kg, po dosed 2 hrs after TNBS treatment and continued daily for 7 days by gavage and measured up to 24 hrs post treatment relative to control; format: functional; parameters: scale not given: the % may be the effect or the level left
[7] = Inhibition of recombinant human BCR-JAK1 expressed in mouse Ba/F3 cells assessed as reduction in pSTAT5 level incubated for 30 mins by AlphaScreen assay; format: cell-based; conditions: BaF3, 0.5 h
[8] = species on record: Homo sapiens; test: Selectivity ratio of EC50 for recombinant human BCR-JAK1 expressed in mouse Ba/F3 cells to EC50 for recombinant human TEL-JAK2 expressed in mouse Ba/F3 cells; format: cell-based
[9] = species on record: Homo sapiens; test: Selectivity ratio of EC50 for recombinant human BCR-JAK1 expressed in mouse Ba/F3 cells to EC50 for recombinant human TEL-JAK3 expressed in mouse Ba/F3 cells; format: cell-based
[10] = species on record: Homo sapiens; test: Selectivity ratio of EC50 for recombinant human BCR-JAK1 expressed in mouse Ba/F3 cells to EC50 for recombinant human TEL-TYK2 expressed in mouse Ba/F3 cells; format: cell-based
[11] = system: BaF3; test: Inhibition of chemotaxis in mouse BAF3 cells; format: functional, cell-based

Chain of Sphingosine 1-phosphate receptor 5 (Q9H228 whole entry): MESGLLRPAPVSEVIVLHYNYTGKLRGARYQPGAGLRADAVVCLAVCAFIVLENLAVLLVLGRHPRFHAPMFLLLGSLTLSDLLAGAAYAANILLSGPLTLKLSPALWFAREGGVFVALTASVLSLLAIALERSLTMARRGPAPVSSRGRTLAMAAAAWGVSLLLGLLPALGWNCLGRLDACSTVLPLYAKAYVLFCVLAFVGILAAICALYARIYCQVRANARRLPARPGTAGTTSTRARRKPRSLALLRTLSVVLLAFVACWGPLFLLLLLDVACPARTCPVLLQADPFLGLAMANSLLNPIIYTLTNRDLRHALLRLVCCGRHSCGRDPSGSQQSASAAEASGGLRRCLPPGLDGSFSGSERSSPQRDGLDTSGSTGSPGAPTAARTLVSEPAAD
Chain of Integrin alpha-4/beta-1 (P05556 whole entry, one chain of several): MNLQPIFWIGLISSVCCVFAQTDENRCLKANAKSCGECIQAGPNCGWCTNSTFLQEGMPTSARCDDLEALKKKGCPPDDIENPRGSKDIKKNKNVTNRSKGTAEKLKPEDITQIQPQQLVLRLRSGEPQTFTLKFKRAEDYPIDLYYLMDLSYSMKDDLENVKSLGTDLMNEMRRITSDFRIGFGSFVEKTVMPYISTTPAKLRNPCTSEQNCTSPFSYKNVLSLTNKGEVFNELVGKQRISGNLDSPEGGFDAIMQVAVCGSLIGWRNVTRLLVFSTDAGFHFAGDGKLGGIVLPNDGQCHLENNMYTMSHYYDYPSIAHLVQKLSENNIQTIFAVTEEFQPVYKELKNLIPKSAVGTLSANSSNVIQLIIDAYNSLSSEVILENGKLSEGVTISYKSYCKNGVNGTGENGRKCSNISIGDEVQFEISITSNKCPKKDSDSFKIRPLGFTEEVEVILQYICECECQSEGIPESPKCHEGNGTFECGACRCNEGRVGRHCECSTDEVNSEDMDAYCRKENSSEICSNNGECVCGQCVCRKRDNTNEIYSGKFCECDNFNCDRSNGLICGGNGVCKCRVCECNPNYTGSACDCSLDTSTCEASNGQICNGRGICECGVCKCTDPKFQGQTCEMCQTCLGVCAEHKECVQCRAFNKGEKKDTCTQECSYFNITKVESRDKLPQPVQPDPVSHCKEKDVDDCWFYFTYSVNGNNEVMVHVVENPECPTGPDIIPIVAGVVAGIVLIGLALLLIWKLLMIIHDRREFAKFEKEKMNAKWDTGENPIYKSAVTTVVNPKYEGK

## CN(C)c1ccc2c(c1)c(=O)n(-c1ccc(C[C@H](NC(=O)c3c(Cl)cccc3Cl)C(=O)O)cc1)c(=O)n2C
[1]
  EC50: 1.4 nM
[2]
  EC50: 5.4 nM
[3]
  EC50: 180 nM
[4]
  inhibition (INH): >95%

## CC(C)Oc1ccc(-c2nc(-c3cccc4c3CC[C@@H]4NCCO)no2)cc1C#N [OZANIMOD]
[5]
  EC50: 4.3 nM
[6]
  Activity: 51%

## CC[C@@H]1CN(C(=O)NCC(F)(F)F)C[C@@H]1c1cnc2cnc3[nH]ccc3n12 [UPADACITINIB]
[7]
  EC50: 14 nM
[8]
  Ratio EC50: 42
[9]
  Ratio EC50: 133
[10]
  Ratio EC50: 192

## CC(C)(C)c1ccc(S(=O)(=O)Nc2ccc(Cl)cc2C(=O)c2cc[n+]([O-])cc2)cc1 [VERCIRNON]
[11]
  EC50: 2.8 nM
